Tested on: mitochondrial GPAT (GPAT1-like)
Test: […]glycerol-3-phosphate incorporation into organic phase, liquid scintillation
Assay type: biochemical, Macrobrachium borellii
Details: read-out: apparent Km; mitochondrial fraction; 0.8 mM glycerol-3-phosphate, 4 mM MgCl2, 2 mg/ml BSA, 8 mM NaF, 1 mM DTT, 75 mM Tris-HCl pH 7.4, 30°C

Km: 31.2 µM
SMILES: CCCCCCCC/C=C\CCCCCCCC(=O)SCCNC(=O)CCNC(=O)[C@H](O)C(C)(C)COP(=O)(O)OP(=O)(O)OC[C@H]1O[C@@H](n2cnc3c(N)ncnc32)[C@H](O)[C@@H]1OP(=O)(O)O [oleoyl-CoA]

— article PMC2823129 (Lipids, 2009)
